Measured values from patent US5811428A, “Pyrimidine carboxamides and related compounds and methods for treating inflammatory conditions” (Signal Pharmaceuticals, Inc., priority 1995, dated 1998).
Where two headings read alike, the source gives them in different places.

Tests used:
[1] = test system: NFκB / AP-1; test: Inhibition of the activation of NFκB and AP-1 (luciferase reporter Jurkat T-cells, PMA/PHA stimulated); type: cell-based, human; conditions: stable Jurkat T-cells, read-out: NFκ/AP-1 IC50
Method: Stable human Jurkat T-cells containing an NFκB binding site (from the MHC promoter) fused to a minimal SV-40 promoter driving luciferase expression were used in this experiment. Cells were split to 3×10^5 cells/mL every 2-3 days (cell concentration should not exceed 1×10^6 cells/mL to keep the cells proliferating in log phase). These cells were counted, resuspended in fresh medium containing 10% Serum-Plus at a density of 1×10^6 cells/mL and plated in 96 well round bottom plates (200 μL per well) 18 hours prior to starting the experiment.
Compounds of this invention, dissolved in dimethyl sulfoxide (3.3, 0.33 and 0.03 μg/mL), were then added to the 96 well plates containing the cells and the plates are incubated for 0.5 h at 37° C. Then 50 ng/mL of phorbol 12-myristate-13-acetate (PMA) and 1 μg/mL of phytohemagglutinin (PHA) was added to each well and the cells were incubated for an additional 5 h at 37° C. The plates were centrifuged at 2200 RPM for 3 minutes at room temperature and then the medium was removed. To each well was added 60 μL of cell lysis buffer and the plates were left at room temperature for 0.25 h. Then 40 μL of each cell extract was transferred to a black 96 well plate and 50 μL of luciferase substrate buffer was added. Luminescence was immediately measured using a Packard TopCount.
For AP-1, the assay was run as described above for NFκB except stable Jurkat T-cells were used that contained a the -73 collagenase promoter driving luciferase expression. In addition, the concentration of PMA used was 5 ng/mL.

[2] = test system: DTH response to oxazolone; test: Delayed type hypersensitivity study (oxazolone contact sensitivity model); type: in vivo, mice; conditions: for Right-Left Ear (mean ± SEM): ear thickness difference 24 h after challenge, vehicle 0.30 ± 0.02
Method: On day 0, oxazolone (100 μL of a 3% solution) was applied to the shaved abdomen of mice. On day 7, a challenge application of oxazolone was applied (10 μL) around the right ear. […] It was prepared immediately prior to use by suspending it in 0.25% methyl cellulose (Sigma) using a glass-teflon homogenizer. For each dose, 0.1 mL/10 g body weight of the suspension was administered. The compound was prepared at the highest concentration for that study and appropriate dilutions of the stock solution were made so that 0.1 mL/10 g body weight was administered. Twenty four hours later, the difference in right vs. left ear thickness was measured.

[3] = test system: alloantigen-induced PLN proliferation; conditions: Morris et al., Transplantation Proceedings 22(Suppl. 1):110-112, 1990; cited from earlier work
[4] = test system: DTH response to oxazolone; conditions: Morris et al., Transplantation Proceedings 22(Suppl. 1):110-112, 1990; cited from earlier work
[5] = test system: β-actin; test: β-actin control cell line (effects on transcription); type: cell-based; conditions: control for effects on transcription; FIG. 3
Source text: The results of the above assays for a representative compound of this invention, 2-chloro-4-trifluoromethyl-5-N-(3',5'-bistrifluoromethylphenyl)pyrimidine carboxamide, as percent inhibition versus control are presented in FIG. 3. This figure also indicates activity of β-actin which was employed in these assays as a control cell line indicating effects on transcription.

[6] = test system: alloantigen-induced PLN proliferation; test: Murine popliteal lymph node (PLN) assay, graft vs. host model; type: in vivo, C3H mice (donor BALB/c mice)
Source text: The murine popliteal lymph node (PLN) assay is a graft vs. host model that predicts activity of compounds in blocking human transplant rejection. The delayed-type hypersensitivity response to oxazolone is a standard contact sensitivity model. Both of these models are used routinely to evaluate compounds that are used clinically.
Spleens were removed from donor BALB/c mice and splenocytes were isolated then irradiated (3,000 rads) to prevent donor cell proliferation. After washing and adjusting cell density, 2.5×10^6 cells were injected subcutaneously into the left hind footpad of C3H mice. On day 4, the mice were sacrificed and left popliteal lymph nodes (PLNs) were weighed.
For doses of 10, 20 and 30 mg/kg, appropriate dilutions of the stock solution were made so that 0.1 mL/10 g body weight was administered by intraperitoneal injection.

| Compound | IC50 ([1]; Homo sapiens) [nM] | also measured |
| --- | --- | --- |
| 2-[N-(1-AMINOCITRACONAMIDE)]-4-TRIFLUOROMETHYL-5-[N-(3',5'-DICHLOROPHENYL)]-PYRIMIDINE-5-CARBOXAMIDE [Example 45] | – | IC50 [1]: 2000 nM |
| O=P1(N(CCCl)CCCl)NCCCO1 (stereo not shown) [Cyclophosphamide, reference compound] | – | Right-Left Ear (mean ± SEM) ([2]; 50 mg/kg (i.p.)): 0.08 ± 0.01; attenuation of the delayed-type response to oxazolone ([2]; 50 mg/kg i.p.): 73%; activity in the PLN model (in words) [3]: active; activity in the contact sensitivity model (in words) [4]: active |
| O=C(Nc1cc(C(F)(F)F)cc(C(F)(F)F)c1)c1cnc(Cl)nc1C(F)(F)F [Example 1, 2-CHLORO-4-TRIFLUOROMETHYL-5-N-[3',5'-BIS(TRIFLUOROMETHYL)PHENYL]PYRIMIDINECARBOXAMIDE] | 30 | activity of β-actin (control cell line) [5]: lack of β-actin activity; inhibition of PLN proliferation ([6]; 10 mg/kg, once daily intraperitoneal, day 0 through day 4): 52%; suppression of alloantigen-induced PLN proliferation (in words) ([6]; 10, 20 and 30 mg/kg i.p.): dose-dependent suppression of alloantigen-induced PLN proliferation; Right-Left Ear (mean ± SEM) ([2]; 10 mg/kg (i.p.)): 0.27 ± 0.01; animal deaths during study ([2]; 30 mg/kg (i.p.)): One animal died during study; Right-Left Ear (mean ± SEM) ([2]; 30 mg/kg (i.p.)): 0.13 ± 0.02; attenuation of the delayed-type response to oxazolone ([2]; 30 mg/kg i.p.): 56% |
| O=C(Nc1ccc(C(F)(F)F)cc1)c1cnc(Cl)nc1C(F)(F)F [Example 2, 2-CHLORO-4-TRlFLUOROMETHYL-5-N(4'-TRIFLUOROMETHYLPHENYL)PYRIMIDINE CARBOXAMIDE] | 750 | – |
| O=C(Nc1cc(Cl)c(Cl)c(Cl)c1)c1cnc(Cl)nc1C(F)(F)F [Example 6, 2-CHLORO-4-TRIFLUOROMETHYL-5-N-(3',4',5'-TRICHLOROPHENYL)PYRIMIDINE CARBOXAMIDE] | 800 | – |
| O=C(Nc1cc(Cl)cc(Cl)c1O)c1cnc(Cl)nc1C(F)(F)F [Example 8, 2-CHLORO-4-TRIFLUOROMETHYL-5-N-(3',5'-DICHLORO-6'-HYDROXYPHENYL)PYRIMIDINE CARBOXAMIDE] | 6000 | – |
| CC(=O)Nc1cc(NC(=O)c2cnc(Cl)nc2C(F)(F)F)ccc1F [Example 10, 2-CHLORO-4-TRIFLUOROMETHYL-5-N-(3'-N-ACYL-4'-FLUORO-ANILINE)PYRIMIDINE CARBOXAMIDE] | 1000 | – |
| NC(=O)c1cc(NC(=O)c2cnc(Cl)nc2C(F)(F)F)cc(C(F)(F)F)c1 [Example 11, 2-CHLORO-4-TRIFLUOROMETHYL-5-N-(3'-TRIFLUOROMETHYL-5'-CARBOXAMIDEPHENYL) PYRIMIDINE CARBOXAMIDE] | 5000 | – |
| CCOC(=O)c1cc(NC(=O)c2cnc(Cl)nc2C(F)(F)F)cc(C(F)(F)F)c1 [Example 12, 2-CHLORO-4-TRIFLUOROMETHYL-5-N-(3'-TRIFLUOROMETHYL-5'-ETHOXYCARBONYLPHENYL)PYRIMIDINE CARBOXAMIDE] | 400 | – |
| CN(C(=O)c1cnc(Cl)nc1C(F)(F)F)c1cc(Cl)cc(Cl)c1 [Example 13, 2-CHLORO-4-TRIFLUOROMETHYL-5-N-(3',5'-DICHLOROPHENYL)-5-N-(METHYL)PYRIMIDINE CARBOXAMIDE] | 5000 | – |

Second part, led by results:

| IC50 ([1]; Homo sapiens) [nM] | Compound | also measured |
| --- | --- | --- |
| 800 | Cc1nc(Cl)nc(Cl)c1C(=O)Nc1cc(C(F)(F)F)cc(C(F)(F)F)c1 [Example 15, 5-N-[3',5'-BIS(TRIFLUOROMETHYL)PHENYL]2,4-DICHLORO-6-METHYLPYRIMIDINE CARBOXAMIDE] | – |
| 75 | Cc1nc(Cl)ncc1C(=O)Nc1cc(C(F)(F)F)cc(C(F)(F)F)c1 [Example 39, 2-CHLORO-4-METHYL-5-N-[3',5'-BIS(TRIFLUOROMETHYL)PHENYL]PYRIMIDINE CARBOXAMIDE] | – |
| 600 | O=C(Nc1cc(C(F)(F)F)cc(C(F)(F)F)c1)c1cnc(Cl)nc1Cl [Example 41, 2,4-DICHLORO-5-N-[3',5'-BIS(TRIFLUOROMETHYL)PHENYL]PYRIMIDINE-5-CARBOXAMIDE] | – |
| > 10000 | N#Cc1ncc(C(=O)Nc2cc(C(F)(F)F)cc(C(F)(F)F)c2)c(C(F)(F)F)n1 [Example 42, 2-CYANO-4-TRIFLUOROMETHYL-5-N-[3',5'-BIS(TRIFLUOROMETHYL)PHENYL]PYRIMIDINE CARBOXAMIDE] | – |
| 500 | O=C(Nc1cc(C(F)(F)F)cc(C(F)(F)F)c1)c1cnc(Cl)nc1-c1ccccc1 [Example 43, 2-CHLORO-4-PHENYL-5-N-[3',5'-BIS(TRIFLUOROMETHYL)PHENYL]PYRIMIDINE CARBOXAMIDE] | – |
